Experimental data published in patent US20230099441A1, “HETEROCYCLIC COMPOUND, APPLICATION THEREOF, AND COMPOSITION CONTAINING SAME” (GenEros Biopharma Ltd., priority 2019, published 2023).

Tested on: STAT5 Y694 phosphorylation
Experiment: Protein electrophoresis and blotting of STAT5 Y694 phosphorylation in Jurkat cells stimulated with human interferon beta
Type: cell-based
Settings: observed pSTAT5 bands at 10 μM and 100 μM
Experimental: Example of Effect 1: Protein Electrophoresis and Blotting Experiment
Standard protein electrophoresis and chemiluminescence imaging equipment (Bio-Rad);
Protein lysate RIPA (Lianke Biological; Cat #WB020); Western blot transfer membrane PVDF (Millipore; Cat #IPVH00010);
Jurkat cells (ATCC American Standard Culture Center, TIB152) were cultured in a 6-well plate at a density of 1×10^6/ml with RPMI medium […] 10% fetal bovine serum in a humidified incubator at 37° C. and maintained at 5% carbon dioxide overnight. On the second day, the cells were pretreated with compounds of different concentrations (the mother liquor of the compound prepared by dimethyl sulfoxide was diluted in the medium at the required concentration) for 1 hour, and then stimulated with 20 ng/ml human interferon beta for 30 minutes, it was mixed thoroughly and then placed in an incubator at 37° C. environment. […] Then an appropriate volume of RIPA Lysis Solution was added, it was mixed well, and placed on ice for 1 hour, inverted and mixed several times in the middle. Then, the cell lysate was centrifuged at 12000 rpm at 4° C. for 10 minutes, and the supernatant was transferred to another test tube, aliquoted and stored at −20° C. until use.
An equal volume of protein lysate was mixed with an appropriate 6-fold protein loading buffer (Biyun Tian Biochemical Company P0015F), and the mixture was heated at 95 degrees for 10 minutes, after full denaturation, the protein sample was added to the polyacrylamide gel (self-made, raw material purchased from Soleibao Biotechnology Company A1010, 30% acrylamide solution), and electrophoresis was performed at the appropriate voltage for 1 hour, until the strips were fully separated. It was transferred to a polyvinylidene fluoride membrane according to standard procedures, and blocked with 5% skim milk for 1 hour, and the specified antibody was added, and it was diluted 1:1000 in 3% bovine serum albumin, and it was incubated overnight for four degrees. It was thoroughly rinsed, incubated with the secondary antibody, exposed to chemiluminescence and signals were collected. ImageJ software was used to quantify the obtained chemiluminescence results. The same area was selected, the gray values of STAT5 phosphorylation band and GAPDH band of each sample were analyzed, and the ratio of pSTAT5/GAPDH level was calculated. The value of the solvent-treated sample was 100%, and the remaining samples were converted into relative data in the same proportion, that is, the percentage corresponding to the solvent sample. […] The solvent control group was the same as the test compound group except that DMSO was used instead of the DMSO solution of the test compound. N1 (Pimozide) was a specific positive control.

Compound	Example of Effect 1: Inhibiting Ability (Protein Electrophoresis and Blotting)
O=C(Cc1ccc(C(F)(F)F)cc1)N1CCC(n2c(=O)[nH]c3ncccc32)CC1 [GEN1-041, 1-(1-(2-(4-(trifluoromethyl)phenyl)acetyl)piperidin-4-yl)-1H-imidazo[4,5-b]pyridine-2(3H)-one]	+
O=C(Cc1ccc(C(F)(F)F)cc1)N1CCC(n2c(=O)[nH]c3cnccc32)CC1 [GEN1-042, 1-(1-(2-(4-(trifluoromethyl)phenyl)acetyl)piperidin-4-yl)-1H-imidazo[4,5-c]pyridin-2(3H)-one]	+
O=C(Cc1ccc(C(F)(F)F)cc1)N1CCC(n2c(=O)[nH]c3ccncc32)CC1 [GEN1-043, 3-(1-(2-(4-(trifluoromethyl)phenyl)acetyl)piperidin-4-yl)-1H-imidazo[4,5-c]pyridin-2(3H)-one]	−
O=C(Cc1ccc(C(F)(F)F)cc1)N1CCC(n2c(=O)[nH]c3cccnc32)CC1 [GEN1-044, 3-(1-(2-(4-(trifluoromethyl)phenyl)acetyl)piperidin-4-yl)-1H-imidazo[4,5-b]pyridin-2(3H)-one]	+
O=C1Nc2ccccc2C1C1CCN(C(=O)Cc2ccc(C(F)(F)F)cc2)CC1 (stereo not drawn) [GEN1-051, 3-(1-(2-(4-(trifluoromethyl)phenyl)acetyl)piperidin-4-yl)indol-2-one]	+
O=C(Cc1ccc(C(F)(F)F)cc1)N1CCC(N2c3ccccc3NS2(=O)=O)CC1 [GEN1-054, 1-(4-(2,2-dioxybenzo[c] [1,2,5]thiadiazole-1(3H)-yl)piperidin-1-yl)-2-(4-(trifluoromethyl)phenyl)ethenone]	−
O=C(Cc1ccc(C(F)(F)F)cc1)N1CCC(n2c(=O)n(O)c3ccccc32)CC1 [GEN1-059, 1-hydroxy-3-(1-(2-(4-(trifluoromethyl)phenyl)acetyl)piperidin-4-yl)-1H-benzo[d]imidazol-2(3H)-one]	−
N#CNc1nc2ccccc2n1C1CCN(C(=O)Cc2ccc(C(F)(F)F)cc2)CC1 [GEN1-061]	+
O=C(Cc1ccc(C(F)(F)F)cc1)NCC1Cc2cccc3[nH]c(=O)n(c23)C1 (stereo not drawn) [GEN1-065]	−
O=c1[nH]c2ccccc2n1C1CCN(S(=O)(=O)Cc2ccc(C(F)(F)F)cc2)CC1 [GEN1-068, 1-(1-((4-(trifluoromethyl)benzyl)sulfonyl)piperidin-4-yl)-1H-benzo[d]imidazol-2(3H)-one]	−
COc1ccc(CC(=O)N2CCC(n3c(=O)[nH]c4ccccc43)CC2)cc1 [GEN1-070, 1-(1-(2-(4-methoxyphenyl)acetyl)piperidin-4-yl)-1H-benzo[d]imidazol-2(3H)-one]	−
O=C(Cc1ccc(O)cc1)N1CCC(n2c(=O)[nH]c3ccccc32)CC1 [GEN1-071, 1-(1-(2-(4-hydroxyphenyl)acetyl)piperidin-4-yl)-1H-benzo[d]imidazol-2(3H)-one]	−
O=C(Cc1ccc2ccccc2c1)N1CCC(n2c(=O)[nH]c3ccccc32)CC1 [GEN1-073, 1-(1-(2-(naphth-2-yl)acetyl)piperidin-4-yl)-1H-benzo[d]imidazol-2(3H)-one]	+
O=C(Cc1ccc(C(F)(F)F)o1)N1CCC(n2c(=O)[nH]c3ccccc32)CC1 [GEN1-078, 1-(1-(2-(5-(trifluoromethyl)furan-2-yl)acetyl)piperidin-4-yl)-1H-benzo[d]imidazol-2(3H)-one]	+
O=C(Cc1ccc(C(F)(F)F)cc1)NCc1cnc2c(c1)CC(=O)N2 [GEN1-083, N-((2-oxo-2,3-dihydro-1H-pyrrolo[2,3-b]pyridin-5-yl)methyl)-2-(4-(trifluoromethyl)phenyl)acetamide]	−
O=C(Cc1ccc(C(F)(F)F)cc1)NCc1ccc2c(c1)C(=O)NC2 [GEN1-084, N-((3-oxoisoindol-5-yl)methyl)-2-(4-(trifluoromethyl)phenyl)acetamide]	+
O=C(Cn1c(=O)[nH]c2ccccc21)N1CCC(O)(c2ccc(C(F)(F)F)cc2)CC1 [GEN1-085, 1-(2-(4-hydroxy-4-(4-(trifluoromethyl)phenyl)piperidin-1-yl)-2-oxoethyl)-1H-benzo[d]imidazol-2(3H)-one]	−
O=c1c2ccc(-n3c(=O)[nH]c4ccccc43)cc2ccn1-c1ccc(C(F)(F)F)cc1 [GEN1-086, 6-(2-oxo-2,3-dihydro-1H-benzo[d]imidazol-1-yl)-2-(4-(trifluoromethyl)phenyl)isoquinoline-1(2H)-one]	−
CC(C)(C)c1ccc2[nH]c(=O)n(C3CCN(C(=O)Cc4ccc(C(F)(F)F)cc4)CC3)c2c1 [GEN1-088, 6-(tert-butyl)-1-(1-(2-(4-(trifluoromethyl)phenyl)acetyl)piperidin-4-yl)-1H-benzo[d]imidazol-2(3H)-one]	+
O=C(Cc1ccc(C(F)(F)F)cc1)N1CCC(n2c(=O)[nH]c3ccc(-c4ccccc4)cc32)CC1 [GEN1-090, 6-phenyl-1-(1-(2-(4-(trifluoromethyl)phenyl)acetyl)piperidin-4-yl)-1H-benzo[d]imidazol-2(3H)-one]	+
NS(=O)(=O)c1cccc2[nH]c(=O)n(C3CCN(C(=O)Cc4ccc(C(F)(F)F)cc4)CC3)c12 [GEN1-094, 2-oxo-3-(1-(2-(4-(trifluoromethyl)phenyl)acetyl)piperidin-4-yl)-2,3-dihydro-1H-benzo[d]imidazol-4-sulfonamide]	+
NC(=O)c1cccc2[nH]c(=O)n(C3CCN(C(=O)Cc4ccc(C(F)(F)F)cc4)CC3)c12 [GEN1-095, 2-oxo-3-(1-(2-(4-(trifluoromethyl)phenyl)acetyl)piperidin-4-yl)-2,3-dihydro-1H-benzo[d]imidazol-4-carboxamide]	−
O=C(Cc1ccc2c(c1)OCO2)N1CCC(n2c(=O)[nH]c3ccccc32)CC1 [GEN1-096, 1-(1-(2-(benzo[d][1,3]dioxol-5-yl)acetyl)piperidin-4-yl)-1H-benzo[d]imidazol-2(3H)-one]	+
CN(C)c1ccc(CC(=O)N2CCC(n3c(=O)[nH]c4ccccc43)CC2)cc1 [GEN1-097, 1-(1-(2-(4-(dimethylamino)phenyl)acetyl)piperidin-4-yl)-1H-benzo[d]imidazol-2(3H)-one]	+
O=C(CC12CC3CC(CC(C3)C1)C2)N1CCC(n2c(=O)[nH]c3ccccc32)CC1 [GEN1-098, 1-(1-(2-(adamantan-1-yl)acetyl)piperidin-4-yl)-1H-benzo[d]imidazol-2(3H)-one]	+
O=C1CN(C2CCN(C(=O)Cc3ccc(C(F)(F)F)cc3)CC2)c2c(cccc2[N+](=O)[O-])N1 [GEN1-101, 5-nitro-4-(1-(2-(4-(trifluoromethyl)phenyl)acetyl)piperidin-4-yl)-3,4-dihydroquinoxaline-2(1H)-one]	+
O=C1CCN(C2CCN(C(=O)Cc3ccc(C(F)(F)F)cc3)CC2)c2ccccc2N1 [GEN1-102, 5-(1-(2-(4-(trifluoromethyl)phenyl)acetyl)piperidin-4-yl)-4,5-dihydro-1H-benzo[b][1,4]diazepine-2(3H)-one]	+
CC(C)(C)c1ccc(CC(=O)N2CCC(n3c(=O)[nH]c4cccc(C(F)(F)F)c43)CC2)cc1 [GEN1-115, 1-(1-(2-(4-(tert-butyl)phenyl)acetyl)piperidin-4-yl)-7-(trifluoromethyl)-1^1H-benzo[d]imidazol-2(3H)-one]	+
O=C1CN(C2CCN(C(=O)Cc3ccc4ncccc4c3)CC2)c2ccccc2N1 [GEN1-120, 4-(1-(2-(quinolin-6-yl)acetyl)piperidin-4-yl)-3,4-dihydroquinoxaline-2(1H)-one]	−
CC(C)(C)c1ccc(CC(=O)N2CCC(N3CC(=O)Nc4ccccc43)CC2)cc1 [GEN1-122, 4-(1-(2-(4-(tert-butyl)phenyl)acetyl)piperidin-4-yl)-3,4-dihydroquinoxaline-2(1H)-one]	+
